Data: patent US20110070232A1, “Combination Therapy with an Antitumor Alkaloid” (Pharma Mar, S.A., priority 2008, published 2011)
“And” between values parts separate entries of the source, which are not always exact repeats. Equal entries are not always repeated. Where two headings read alike, the source gives them in different places.

Test system: NCI-H460 tumors
Assay type: in vivo, mice
Details: for % Inhibition: PM00104 0.9 mg/kg/day, single agents and combination, r5-r13 = day 9,13,16,21,24,27,30,38,41
Experimental: Female athymic nude mice (Harlan Sprague Dawley, Madison, Wis.) were utilized for all experiments. Animals were housed in ventilated rack caging with food and water ad libitum. The mice were acclimated for at least 5 days prior to tumor implantation.
The tumor model used in this study was NCI-H460 cell line which is a human NSCLC cell line obtained from the ATCC (Manassas, Va.). […] Cells from in vitro passage 7 were implanted SC into study mice using a 1 ml syringe with a 13G trocar: 5×10^6 cells/mouse in 0.2 ml 50% Matrigel/50% RPMI medium of NCI-H460 without serum or antibiotics. Bacterial culture was taken on cells used to implant the study.
Treatments were initiated on DPI 9.
Tumor size measurements were recorded 2-3 times/week from the treatment initiation until the termination of the study.
Mean, standard deviation and standard error of the mean were determined for tumor volume for all animal groups at all assessments. Student's t test was performed on tumor volumes at each measurement day, including at the end of the study, to determine whether there were any statistically significant differences between combination treatment groups and single monotherapy treatment groups.

[1] = PM00104 0.9 mg/kg/day IV and/or Bevacizumab 5 mg/kg/day IP

COc1c(C)cc2c(c1O)[C@@H]1[C@@H]3Cc4c(OC(C)=O)c(C)c5c(c4[C@H](CNC(=O)/C=C/c4cccc(C(F)(F)F)c4)N3[C@@H](O)[C@H](C2)N1C)OCO5 [PM00104]
% T/C on day 9 [1]: 96.3% | % T/C on day 13 [1]: 97.8% | % T/C on day 16 [1]: 75.9% | % T/C on day 21 [1]: 73.2% | % T/C on day 24 [1]: 66.8% | % T/C on day 27 [1]: 43.8% | % T/C on day 30 [1]: 45.1% | % T/C on day 38 [1]: 125.1% | % T/C on day 41 [1]: 132.5% | % Inhibition (bevacizumab 5 mg/kg/day): 24.1% and 33.2% | % Inhibition (temsirolimus 10 mg/kg/day): 24.1% and 33.2% | % Inhibition (temsirolimus 20 mg/kg/day): 24.1% and 33.2%
